Measured values taken from patent publication US10670605B2, “Cysteine reactive probes and uses thereof” (The Scripps Research Institute, priority 2015, dated 2020).

Experiments:
Experiment in all cases: Competitive isoTOP-ABPP in situ (fragment-treated cells)
Assay type in all cases: cell-based
[1] = target: cysteines in MDA-MB-231 and Ramos cells (Homo sapiens, UniProt P35658)
[2] = target: cysteines in MDA-MB-231 and Ramos cells (Homo sapiens, UniProt Q15118)
[3] = target: T1, cysteines in MDA-MB-231 and Ramos cells (Homo sapiens, UniProt Q6ICB0)
T1 sequence (Q6ICB0 1-168): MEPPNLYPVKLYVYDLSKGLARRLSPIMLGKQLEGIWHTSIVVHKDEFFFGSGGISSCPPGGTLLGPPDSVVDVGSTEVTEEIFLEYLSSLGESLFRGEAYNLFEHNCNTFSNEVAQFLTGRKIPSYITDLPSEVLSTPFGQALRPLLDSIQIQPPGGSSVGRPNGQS

[4] = target: cysteines in MDA-MB-231 and Ramos cells (Homo sapiens, UniProt Q8NDH3); conditions: 200 μM, insitu, 231
cysteines in MDA-MB-231 and Ramos cells (Homo sapiens, UniProt Q8NDH3), sequence (Q8NDH3 whole entry): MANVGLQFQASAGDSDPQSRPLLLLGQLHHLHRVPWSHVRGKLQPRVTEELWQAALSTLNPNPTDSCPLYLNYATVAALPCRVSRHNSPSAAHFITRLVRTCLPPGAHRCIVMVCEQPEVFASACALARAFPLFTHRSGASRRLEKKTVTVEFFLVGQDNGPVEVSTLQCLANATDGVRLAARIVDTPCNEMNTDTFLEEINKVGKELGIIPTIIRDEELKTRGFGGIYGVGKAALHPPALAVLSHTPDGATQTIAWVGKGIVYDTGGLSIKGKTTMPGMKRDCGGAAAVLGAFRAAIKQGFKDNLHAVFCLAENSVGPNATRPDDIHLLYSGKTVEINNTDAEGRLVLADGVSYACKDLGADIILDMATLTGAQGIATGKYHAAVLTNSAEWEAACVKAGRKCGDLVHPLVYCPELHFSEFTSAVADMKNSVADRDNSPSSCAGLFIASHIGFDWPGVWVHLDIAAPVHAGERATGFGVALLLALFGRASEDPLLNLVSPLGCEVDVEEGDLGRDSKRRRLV

[5] = target: T2, cysteines in MDA-MB-231 and Ramos cells (Homo sapiens, UniProt Q9NRW3); conditions: 200 μM, insitu
T2 sequence (Q9NRW3 1-190): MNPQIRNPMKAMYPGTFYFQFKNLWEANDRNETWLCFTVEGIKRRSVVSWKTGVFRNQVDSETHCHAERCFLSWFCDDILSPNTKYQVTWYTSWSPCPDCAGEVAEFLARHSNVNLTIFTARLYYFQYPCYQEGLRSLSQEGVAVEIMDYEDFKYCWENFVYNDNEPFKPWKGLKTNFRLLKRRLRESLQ

[6] = target: T3, cysteines in MDA-MB-231 and Ramos cells (Homo sapiens, UniProt Q9Y570); conditions: 200 μM, insitu
T3 sequence (Q9Y570 1-386): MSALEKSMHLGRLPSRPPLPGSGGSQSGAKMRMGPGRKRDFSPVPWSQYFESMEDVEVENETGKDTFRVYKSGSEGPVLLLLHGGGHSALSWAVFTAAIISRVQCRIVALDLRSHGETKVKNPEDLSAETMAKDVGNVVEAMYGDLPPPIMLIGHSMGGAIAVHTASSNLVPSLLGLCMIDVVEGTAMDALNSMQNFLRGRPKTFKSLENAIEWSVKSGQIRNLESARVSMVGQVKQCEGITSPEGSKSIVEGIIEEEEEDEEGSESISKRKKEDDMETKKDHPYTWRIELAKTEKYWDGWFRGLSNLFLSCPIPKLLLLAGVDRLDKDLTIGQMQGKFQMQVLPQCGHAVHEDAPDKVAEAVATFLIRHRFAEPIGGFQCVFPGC

[7] = target: T4, cysteines in MDA-MB-231 and Ramos cells (Homo sapiens, UniProt O14929)
T4 sequence (O14929 1-419): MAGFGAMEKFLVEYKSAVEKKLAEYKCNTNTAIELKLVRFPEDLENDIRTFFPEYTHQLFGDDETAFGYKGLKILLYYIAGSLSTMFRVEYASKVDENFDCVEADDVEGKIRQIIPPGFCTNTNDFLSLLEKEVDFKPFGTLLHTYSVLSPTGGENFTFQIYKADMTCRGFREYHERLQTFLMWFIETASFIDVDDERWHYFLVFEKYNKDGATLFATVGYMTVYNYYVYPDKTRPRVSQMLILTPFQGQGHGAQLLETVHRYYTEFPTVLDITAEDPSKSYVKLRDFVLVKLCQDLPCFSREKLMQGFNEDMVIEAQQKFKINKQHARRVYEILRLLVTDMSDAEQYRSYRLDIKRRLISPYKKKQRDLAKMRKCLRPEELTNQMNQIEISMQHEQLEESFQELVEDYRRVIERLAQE

[8] = target: cysteines in MDA-MB-231 and Ramos cells (Homo sapiens, UniProt P48643)
cysteines in MDA-MB-231 and Ramos cells (Homo sapiens, UniProt P48643), sequence (P48643 whole entry): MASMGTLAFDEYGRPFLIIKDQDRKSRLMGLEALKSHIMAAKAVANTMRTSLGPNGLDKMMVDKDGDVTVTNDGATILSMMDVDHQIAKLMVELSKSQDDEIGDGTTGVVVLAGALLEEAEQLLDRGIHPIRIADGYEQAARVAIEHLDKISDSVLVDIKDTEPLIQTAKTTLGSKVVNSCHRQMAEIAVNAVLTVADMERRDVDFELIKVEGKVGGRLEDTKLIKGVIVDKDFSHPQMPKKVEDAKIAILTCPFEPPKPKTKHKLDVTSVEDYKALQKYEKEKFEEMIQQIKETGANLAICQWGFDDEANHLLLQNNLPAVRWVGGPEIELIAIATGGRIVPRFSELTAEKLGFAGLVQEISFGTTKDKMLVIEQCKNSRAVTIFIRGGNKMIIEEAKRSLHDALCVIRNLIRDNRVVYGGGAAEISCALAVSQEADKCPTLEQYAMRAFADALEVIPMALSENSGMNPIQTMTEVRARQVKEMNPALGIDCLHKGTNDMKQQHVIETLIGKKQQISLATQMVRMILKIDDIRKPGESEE

[9] = target: cysteines in MDA-MB-231 and Ramos cells (Homo sapiens, UniProt Q06203); conditions: 200 μM, insitu
cysteines in MDA-MB-231 and Ramos cells (Homo sapiens, UniProt Q06203), sequence (Q06203 12-517): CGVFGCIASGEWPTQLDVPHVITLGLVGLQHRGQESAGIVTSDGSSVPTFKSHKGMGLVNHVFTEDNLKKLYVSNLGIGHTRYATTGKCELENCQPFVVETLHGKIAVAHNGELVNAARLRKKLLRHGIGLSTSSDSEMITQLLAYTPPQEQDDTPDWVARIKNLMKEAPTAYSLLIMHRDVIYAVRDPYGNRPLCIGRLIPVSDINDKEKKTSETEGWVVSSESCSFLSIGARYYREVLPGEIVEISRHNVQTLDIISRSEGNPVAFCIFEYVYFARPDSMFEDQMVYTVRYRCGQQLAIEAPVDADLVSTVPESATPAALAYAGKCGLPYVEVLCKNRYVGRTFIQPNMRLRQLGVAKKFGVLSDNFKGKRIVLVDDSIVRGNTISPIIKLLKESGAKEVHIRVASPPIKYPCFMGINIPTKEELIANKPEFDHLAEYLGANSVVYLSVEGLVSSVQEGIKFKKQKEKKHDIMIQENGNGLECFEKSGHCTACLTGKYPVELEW

[10] = target: T5, cysteines in MDA-MB-231 and Ramos cells (Homo sapiens, UniProt Q96RS6)
T5 sequence (Q96RS6 1-583): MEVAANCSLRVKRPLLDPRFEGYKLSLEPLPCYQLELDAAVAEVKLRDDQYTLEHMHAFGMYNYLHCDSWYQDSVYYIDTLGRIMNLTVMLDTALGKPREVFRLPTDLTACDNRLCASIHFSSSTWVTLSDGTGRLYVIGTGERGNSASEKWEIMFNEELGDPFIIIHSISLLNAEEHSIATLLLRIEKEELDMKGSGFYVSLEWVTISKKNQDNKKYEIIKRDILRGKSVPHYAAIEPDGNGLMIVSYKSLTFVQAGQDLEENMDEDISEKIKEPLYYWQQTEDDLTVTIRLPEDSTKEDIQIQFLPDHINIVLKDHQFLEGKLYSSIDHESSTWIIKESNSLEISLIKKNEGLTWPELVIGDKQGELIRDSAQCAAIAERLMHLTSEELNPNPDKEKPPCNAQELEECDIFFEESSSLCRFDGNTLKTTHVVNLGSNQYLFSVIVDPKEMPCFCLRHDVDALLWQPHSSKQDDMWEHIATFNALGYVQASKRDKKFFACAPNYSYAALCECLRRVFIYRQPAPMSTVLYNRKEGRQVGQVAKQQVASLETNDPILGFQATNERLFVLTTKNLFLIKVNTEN

[11] = target: T6, cysteines in MDA-MB-231 and Ramos cells (Homo sapiens, UniProt Q5TFE4); conditions: 200 μM, insitu
T6 sequence (Q5TFE4 1-455): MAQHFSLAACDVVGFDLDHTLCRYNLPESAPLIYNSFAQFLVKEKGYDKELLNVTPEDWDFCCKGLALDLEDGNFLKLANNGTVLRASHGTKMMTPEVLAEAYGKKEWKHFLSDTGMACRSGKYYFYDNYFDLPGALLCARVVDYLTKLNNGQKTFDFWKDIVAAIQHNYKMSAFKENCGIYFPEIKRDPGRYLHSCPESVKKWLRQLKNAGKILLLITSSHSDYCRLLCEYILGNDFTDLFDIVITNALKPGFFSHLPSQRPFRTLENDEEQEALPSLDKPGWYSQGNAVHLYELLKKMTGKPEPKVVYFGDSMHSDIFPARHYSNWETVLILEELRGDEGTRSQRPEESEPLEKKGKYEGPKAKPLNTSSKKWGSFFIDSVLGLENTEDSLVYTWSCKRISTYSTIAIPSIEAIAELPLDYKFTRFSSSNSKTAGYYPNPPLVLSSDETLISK

cysteines in MDA-MB-231 and Ramos cells (Homo sapiens, UniProt P35658), sequence (P35658 whole entry): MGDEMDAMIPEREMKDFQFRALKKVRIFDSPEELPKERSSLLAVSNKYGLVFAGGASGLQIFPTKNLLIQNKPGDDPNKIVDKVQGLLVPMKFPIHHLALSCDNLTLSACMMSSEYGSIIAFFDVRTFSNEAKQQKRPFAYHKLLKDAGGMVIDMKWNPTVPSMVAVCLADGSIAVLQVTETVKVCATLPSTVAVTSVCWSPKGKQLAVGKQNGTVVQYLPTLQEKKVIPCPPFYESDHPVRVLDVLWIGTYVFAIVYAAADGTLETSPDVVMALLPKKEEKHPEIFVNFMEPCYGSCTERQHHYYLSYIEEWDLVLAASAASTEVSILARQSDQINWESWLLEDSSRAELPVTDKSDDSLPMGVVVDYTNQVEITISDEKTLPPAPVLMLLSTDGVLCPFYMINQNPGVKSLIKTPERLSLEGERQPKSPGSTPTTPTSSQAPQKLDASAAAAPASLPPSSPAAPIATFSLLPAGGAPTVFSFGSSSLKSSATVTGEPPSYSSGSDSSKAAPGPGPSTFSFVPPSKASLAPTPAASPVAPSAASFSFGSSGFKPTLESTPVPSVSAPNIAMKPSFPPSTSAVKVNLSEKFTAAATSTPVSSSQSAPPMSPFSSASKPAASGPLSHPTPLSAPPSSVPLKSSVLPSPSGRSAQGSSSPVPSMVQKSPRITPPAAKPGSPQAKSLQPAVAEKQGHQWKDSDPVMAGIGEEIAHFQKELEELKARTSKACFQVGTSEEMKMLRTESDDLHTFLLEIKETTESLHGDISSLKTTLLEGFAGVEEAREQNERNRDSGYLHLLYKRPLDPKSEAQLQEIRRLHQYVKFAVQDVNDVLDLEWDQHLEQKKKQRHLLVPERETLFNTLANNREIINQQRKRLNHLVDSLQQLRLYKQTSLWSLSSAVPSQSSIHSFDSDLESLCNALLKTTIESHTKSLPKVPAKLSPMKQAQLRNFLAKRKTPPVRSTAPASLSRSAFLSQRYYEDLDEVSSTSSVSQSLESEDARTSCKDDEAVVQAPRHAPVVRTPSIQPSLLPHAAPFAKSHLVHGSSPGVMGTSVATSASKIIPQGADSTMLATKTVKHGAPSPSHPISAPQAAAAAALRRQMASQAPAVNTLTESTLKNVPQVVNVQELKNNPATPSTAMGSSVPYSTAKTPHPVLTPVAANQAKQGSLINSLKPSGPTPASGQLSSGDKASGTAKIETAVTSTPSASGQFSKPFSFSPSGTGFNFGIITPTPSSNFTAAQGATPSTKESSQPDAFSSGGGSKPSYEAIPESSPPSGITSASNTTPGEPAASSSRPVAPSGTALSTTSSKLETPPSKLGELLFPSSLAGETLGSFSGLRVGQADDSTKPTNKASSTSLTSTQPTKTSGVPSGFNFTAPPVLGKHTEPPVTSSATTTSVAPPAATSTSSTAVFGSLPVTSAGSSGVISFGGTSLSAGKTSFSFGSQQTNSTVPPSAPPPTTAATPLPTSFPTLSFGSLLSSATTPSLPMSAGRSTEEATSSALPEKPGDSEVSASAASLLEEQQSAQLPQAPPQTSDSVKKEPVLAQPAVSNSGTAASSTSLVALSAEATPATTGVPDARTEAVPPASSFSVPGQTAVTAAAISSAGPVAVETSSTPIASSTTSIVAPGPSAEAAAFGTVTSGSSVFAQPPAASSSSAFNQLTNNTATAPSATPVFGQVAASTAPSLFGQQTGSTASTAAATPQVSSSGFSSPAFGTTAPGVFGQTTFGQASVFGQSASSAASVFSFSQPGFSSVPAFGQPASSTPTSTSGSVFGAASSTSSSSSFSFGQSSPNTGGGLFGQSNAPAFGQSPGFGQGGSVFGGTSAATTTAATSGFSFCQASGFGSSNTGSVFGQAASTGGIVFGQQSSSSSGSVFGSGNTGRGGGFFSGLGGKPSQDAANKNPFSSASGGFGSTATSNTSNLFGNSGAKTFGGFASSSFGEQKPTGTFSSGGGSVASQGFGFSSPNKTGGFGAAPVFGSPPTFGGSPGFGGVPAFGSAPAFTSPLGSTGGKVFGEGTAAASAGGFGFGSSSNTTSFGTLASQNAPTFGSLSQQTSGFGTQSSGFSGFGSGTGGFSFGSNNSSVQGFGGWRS
cysteines in MDA-MB-231 and Ramos cells (Homo sapiens, UniProt Q15118), sequence (Q15118 29-436): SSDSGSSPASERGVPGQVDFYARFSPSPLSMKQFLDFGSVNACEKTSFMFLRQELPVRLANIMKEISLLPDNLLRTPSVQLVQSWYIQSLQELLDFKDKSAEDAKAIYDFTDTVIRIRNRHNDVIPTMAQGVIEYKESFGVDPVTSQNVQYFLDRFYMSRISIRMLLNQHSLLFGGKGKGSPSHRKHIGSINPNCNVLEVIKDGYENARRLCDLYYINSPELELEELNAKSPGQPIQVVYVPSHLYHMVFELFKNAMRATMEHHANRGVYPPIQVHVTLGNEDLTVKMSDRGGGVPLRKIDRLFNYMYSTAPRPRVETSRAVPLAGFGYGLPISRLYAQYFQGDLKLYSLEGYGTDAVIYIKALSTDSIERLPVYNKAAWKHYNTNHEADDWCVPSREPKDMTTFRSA

## COc1ccc2c(c1)CCCN2C(=O)CCl [compound 2]
[1]; 200 μM, insitu, 231
  isoTOP-ABPP reactivity P35658_C728 NUP214: 3.9
[2]; 200 μM, insitu, 231
  isoTOP-ABPP reactivity Q15118_C71 PDK1: 20.0
[3]; 200 μM, insitu, 231
  isoTOP-ABPP reactivity Q6ICB0_C108 DESII: 20.0
[4]
  isoTOP-ABPP reactivity Q8NDH3_C81 NPEPL1: 20.0
[5]; 231
  isoTOP-ABPP reactivity Q9NRW3_C130 APOBEC3C: 20.0
[6]; 231
  isoTOP-ABPP reactivity Q9Y570_C381 PPME1: 12.6

## C=CC(=O)Nc1cc(F)c(N2CCN(C(=O)OC(C)(C)C)CC2)c(F)c1 [compound 38]
[7]; 200 μM, insitu, 231
  isoTOP-ABPP ratio O14929_C101: 1.1
[8]; 200 μM, insitu, 231
  isoTOP-ABPP ratio P48643_C253: 1.1
[9]; 231
  isoTOP-ABPP ratio Q06203_C100: 1.2
[2]; 200 μM, insitu, 231
  isoTOP-ABPP ratio Q15118_C71: 1.3
[3]; 200 μM, insitu, 231
  isoTOP-ABPP ratio Q6ICB0_C108: 1.1
[4]
  isoTOP-ABPP ratio Q8NDH3_C81: 2.0
[10]; 200 μM, insitu, 231
  isoTOP-ABPP ratio Q96RS6_C376: 1.3

## O=C(CCl)NC(=O)NC12CC3CC(CC(C3)C1)C2 [compound 12]
[7]; 200 μM, insitu, 231
  isoTOP-ABPP ratio O14929_C101: 20.0
[8]; 200 μM, insitu, 231
  isoTOP-ABPP ratio P48643_C253: 5.1
[4]
  isoTOP-ABPP ratio, cysteine Q8NDH3_C81: 20.0
[10]; 200 μM, insitu, 231
  isoTOP-ABPP ratio Q96RS6_C376: 1.1

## C=CC(=O)N(Cc1cccnc1)c1cc(C(F)(F)F)cc(C(F)(F)F)c1 [compound 31]
[1]; 200 μM, insitu, 231
  isoTOP-ABPP ratio P35658_C728: 0.7
[8]; 200 μM, insitu, 231
  isoTOP-ABPP ratio P48643_C253: 0.5
[8]; 200 μM, insitu, ramos
  isoTOP-ABPP ratio P48643_C253: 1.0
[9]; 231
  isoTOP-ABPP ratio Q06203_C100: 0.6
[9]; ramos
  isoTOP-ABPP ratio Q06203_C100: 1.2
[11]; 231
  isoTOP-ABPP ratio Q5TFE4_C119: 3.1
[3]; 200 μM, insitu, 231
  isoTOP-ABPP ratio Q6ICB0_C108: 1.2
[3]; 200 μM, insitu, ramos
  isoTOP-ABPP ratio Q6ICB0_C108: 1.3
[4]
  isoTOP-ABPP ratio Q8NDH3_C81: 1.0
[10]; 200 μM, insitu, 231
  isoTOP-ABPP ratio Q96RS6_C376: 0.8

## Cn1cc(S(=O)(=O)N2CCOCC2)cc1C(=O)NC(=O)CCl [compound 11]
[7]; 100 μM in situ 231
  isoTOP-ABPP ratio O14929_C101: 0.8
[1]; 100 μM in situ 231
  isoTOP-ABPP ratio P35658_C728: 0.8
[8]; 100 μM in situ 231
  isoTOP-ABPP ratio P48643_C253: 0.6
[2]; 100 μM in situ 231
  isoTOP-ABPP ratio Q15118_C71: 0.6
[3]; 100 μM in situ 231
  isoTOP-ABPP ratio Q6ICB0_C108: 0.7
[10]; 100 μM in situ 231
  isoTOP-ABPP ratio Q96RS6_C376: 0.8

## O=C(CCl)NCCc1c[nH]c2ccccc12 [compound 13]
[7]; 200 μM, insitu, 231
  isoTOP-ABPP ratio O14929_C101: 0.9
[7]; 200 μM, insitu, ramos
  isoTOP-ABPP ratio O14929_C101: 1.2
[1]; 200 μM, insitu, 231
  isoTOP-ABPP ratio P35658_C728: 1.0
[9]; ramos
  isoTOP-ABPP ratio, cysteine Q06203_C100: 2.0
[2]; 200 μM, insitu, 231
  isoTOP-ABPP ratio Q15118_C71: 1.6
[11]; ramos
  isoTOP-ABPP ratio, cysteine Q5TFE4_C119: 1.7
[3]; 200 μM, insitu, ramos
  isoTOP-ABPP ratio Q6ICB0_C108: 4.0
[10]; 200 μM, insitu, 231
  isoTOP-ABPP ratio Q96RS6_C376: 0.7
[10]; 200 μM, insitu, ramos
  isoTOP-ABPP ratio Q96RS6_C376: 1.2
[6]; 231
  isoTOP-ABPP ratio, cysteine Q9Y570_C381: 0.9

## O=C(CCl)N1CCN(CC(=O)N2CCOCC2)CC1 [compound 29]
[7]; 200 μM, insitu, ramos
  isoTOP-ABPP ratio O14929_C101: 1.0
[1]; 200 μM, insitu, ramos
  isoTOP-ABPP ratio P35658_C728: 1.7
[9]; ramos
  isoTOP-ABPP ratio Q06203_C100: 1.6
[2]; 200 μM, insitu, ramos
  isoTOP-ABPP ratio Q15118_C71: 1.8
[3]; 200 μM, insitu, ramos
  isoTOP-ABPP ratio Q6ICB0_C108: 1.0
[10]; 200 μM, insitu, ramos
  isoTOP-ABPP ratio Q96RS6_C376: 1.3
[5]; ramos
  isoTOP-ABPP ratio Q9NRW3_C130: 13.3
[6]; ramos
  isoTOP-ABPP ratio Q9Y570_C381: 1.2

## O=C(CCl)NC12CC3CC(CC(C3)C1)C2 [compound 21]
[7]; 200 μM, insitu, 231
  isoTOP-ABPP ratio O14929_C101: 1.2
[1]; 200 μM, insitu, 231
  isoTOP-ABPP ratio P35658_C728: 1.3
[2]; 200 μM, insitu, 231
  isoTOP-ABPP ratio Q15118_C71: 1.7
[11]; 231
  isoTOP-ABPP ratio, cysteine Q5TFE4_C119: 1.2
[3]; 200 μM, insitu, 231
  isoTOP-ABPP ratio Q6ICB0_C108: 0.6
[4]
  isoTOP-ABPP ratio, cysteine Q8NDH3_C81: 1.6
[10]; 200 μM, insitu, 231
  isoTOP-ABPP ratio Q96RS6_C376: 1.4
[5]; 231
  isoTOP-ABPP ratio, cysteine Q9NRW3_C130: 1.3

## O=C(CCl)N1CCC(Cc2ccccc2)CC1 [compound 9]
[7]; 200 μM, insitu, 231
  isoTOP-ABPP reactivity O14929_C101 HAT1: 9.0
[11]; 231
  isoTOP-ABPP reactivity Q5TFE4_C119 NT5DC1: 20.0
[10]; 200 μM, insitu, 231
  isoTOP-ABPP reactivity Q96RS6_C376 NUDCD1: 2.2
[6]; 231
  isoTOP-ABPP reactivity Q9Y570_C381 PPME1: 20.0
